Data on three compounds can be found in patent US20260190612A1, “LIGHT-EMITTING DEVICE” (SEMICONDUCTOR ENERGY LABORATORY CO., LTD., priority 2022, published 2026).

SMILES strings stand for the structures. ≈ marks a conversion by molar mass, not a printed value.

As a reminder, the solubility is the dissolved amount per volume that the medium holds.

A short description of this data set: solubility of the first organic compound in water.
Consider `c1ccc2c(c1)-c1ccccc1C21c2ccccc2-c2ccc(N3CCCN4CCCN=C43)cc21` [2hppSF, 1-(9,9′-spirobi[9H-fluoren]-2-yl)-1,3,4,6,7,8-hexahydro-2H-pyrimido[1,2-a]pyrimidine], for which the solubility fell in the range of 18 to 22 µg/mL (≈ 39.7 to 48.5 µM). Then `c1ccc2c(c1)-c1ccccc1C21c2cc(N3CCCN4CCCN=C43)ccc2-c2ccc(N3CCCN4CCCN=C43)cc21` [2,7hpp2SF, 1,1′-(9,9′-spirobi[9H-fluorene]-2,7-diyl)bis(1,3,4,6,7,8-hexahydro-2H-pyrimido[1,2-a]pyrimidine)], with 230 to 390 µg/mL (≈ 389 to 660 µM); and `CC(C)(C)c1ccc2c(c1)C1(c3ccccc3-c3ccc(N4CCCN5CCCN=C54)cc31)c1cc(C(C)(C)C)ccc1-2` [2′,7′tBu-2hppSF, 1-(2′,7′-di-tert-butyl-9,9′-spirobi[9H-fluoren]-2-yl)-1,3,4,6,7,8-hexahydro-2H-pyrimido[1,2-a]pyrimidine], with less than 2.3 µg/mL.
